# Assay results reported in patent US20260275280A1, “DIRECTED DIFFERENTIATION PROTOCOLS TO DERIVE BONE FIDE SPINAL SENSORY INTERNEURONS” (THE REGENTS OF THE UNIVERSITY OF CALIFORNIA, priority 2022, published 2026).
# “Also recorded” adds a separate entry of the source.
# Tests used:
# [1] = system: CHIR-expanded EBs; assay: Differentiation of CHIR-expanded EBs on Matrigel (IHC, RT-qPCR at day 10); type: cell-based, mouse; details: DAPT added
# Procedure: Embryoid body (EB) differentiation: To induce differentiation, EBs were dissociated into smaller clumps by a 5-7-minute treatment with cold 0.25% Trypsin (Gibco), followed by trituration. Trypsin was neutralized with 1:1 addition of Trypsin inhibitor (Sigma-Aldrich) and cells were pelleted by centrifugation at 1000RPM. Cell pellets were resuspended in N2/B27 medium (without growth factors) and plated onto a Matrigel precoated plate. In our experience, the single cell suspension of 100-150 EBs provided enough cells to seed one 24-well plate. […] At the end of 10 days, multiple neural processes can be visualized by phase contrast microscopy and cultures were either fixed with 4% PFA for immunohistochemistry or lysed to extract RNA in RLT buffer (Qiagen). […] CHIR withdrawal), or DAPT, a pro-differentiation agent (Crawford and Roelink, 2007) (FIG. 7J). […] This strategy was successful at restoring almost all dI identities in cultures taken from EBs both at the earliest passage and at the latest passage assessed (passage 7;
# [2] = system: Wnt/β-catenin signaling; assay: Inhibition of Wnt/β-catenin signaling during dI differentiation (IHC and RT-qPCR at day 9); type: cell-based, mouse
# Procedure: (§1) The mouse ESC line, MM13, was routinely maintained in ES cell media (DMEM+20% FBS) with 100u/ml of mouse leukocyte inducing factor (LIF). […] To prepare cells for the differentiation, ESC colonies were dissociated with 0.25% trypsin and plated on gelatin coated plates at 1:10 dilution to reduce MEF transfer. Cells cultured on gelatin coated plates and allowed to proliferate for 1-2 days. To initiate differentiation, cells were plated on 0.1% gelatin coated 24-well CellBIND dishes (Corning) at 20,000 cells/ml density in 0.5 ml/well N2/B27 medium that contains 10 ng/ml basic fibroblast growth factor (bFGF). The N2/B27 medium contains 1:1 portions of Advanced Dulbecco's modified Eagle Media (DMEM) F12 (Hyclone) and Neurobasal media (Thermo Fisher Scientific) supplemented with 0.5×N2, 1×B27 supplement (with Vitamin A), 2 mM L-glutamine, 0.1 mM 2-mercaptoethanol (ME), and 1% BSA. On day 1, small colonies of cells can be observed attached to the bottom of the wells. On day 2, cells were supplemented with 10 ng/ml bFGF and 5 μM CHIR99021 for 24 hours to induce a neuromesodermal identity (Gouti et al., 2014). On day 3, media was changed as follows: for protocol 1, cells were exposed to 100 nM RA for 48 hrs. For protocol 2, 10 ng/ml human recombinant BMP4 (Thermo Fisher Scientific) was added concomitantly with 100 nM RA (RA+BMP4) for 48 hrs. For protocol 3, cells were exposed to 100 nM RA for 24 hrs, followed by a pulse of RA+BMP4 for another 24 hours. To induce terminal differentiation in all three conditions, the medium containing growth factors was replaced with basic N2/B27 medium at day 5, and cell allowed to differentiate to day 9. At the end of the differentiation, the cultures were fixed for immunohistochemical analysis or lysed to obtain RNA for RNA-Seq or quantitative reverse transcriptase PCR analysis.
# Immunohistochemistry: For 2d differentiations, adherent cultures were first washed with 1×PBS and fixed with fresh cold 4% PFA for 10 minutes in the well. Following fixation, cultures were washed twice with 1×PBS to remove any remaining PFA. Cells were blocked with 1×PBS with 1% heat inactivated horse serum for 1 hour and primary antibodies are added in the blocking solution for an overnight incubation at 4C. Following washes, species appropriate secondary antibodies (Jackson Immuno Research Laboratories) were added in 1× PBT (PBS+0.1% […]) for 1 hr. The cultures were then washed with 1× PBT to remove traces of secondary antibodies and counterstained with DAPI to stain nuclei. Plates were then imaged on Zeiss LSM800 inverted confocal microscope at 10× magnification.
# (§2) Quantitative (a) RT-PCR analysis: RNA was isolated with RNeasy Mini Kit (Qiagen, cat no. 74104), and converted to cDNA using Superscript IV First Strand Synthesis kit (Thermo Fisher Scientific). qRT-PCR was performed using SYBR Green PCR Master Mix (Applied Biosystems) on Roche 480 Lightcycler (Roche). The relative fold expression was calculated using 2-AACt method of comparing the expression of the target gene with that of the housekeeping gene glyceraldehyde 3-phosphate dehydrogenase (Gapdh). All experiments were repeated at least 2-3 times (technical replicates) from at least two independent differentiations (biological replicates), and data is represented as mean±SEM.
# To assess the role of canonical Wnt signaling in dI fate specification, we added endo-IWR1 (IWR1e), a small molecule inhibitor which blocks p-catenin function (Chen et al., 2009) to dPs from day 4-6 (FIG. 5A). By day 9, the RA+BMP4 condition robustly induces dlis-dI3s (FIG. 5F-51, 5N-5P).
# [3] = system: hESCs; details: added to the cell dissociation media (Watanabe et al., 2007, Pettinato et al., 2015); cited from earlier work
# [4] = system: mESCs; assay: NMP induction from mESCs with bFGF and CHIR (Sox2/T expression); type: cell-based, mouse; details: day 2 (48 hr bFGF alone) / day 3 (further 24 hr bFGF and CHIR)
# Procedure: as §1, with “For protocol 2, 10 ng/ml human recombinant BMP4 (Thermo Fisher Scientific) was added concomitantly with 100 nM RA (RA+BMP4) for 48 hrs. For protocol 3, cells were exposed to 100 nM RA for 24 hrs, followed by a pulse of RA+BMP4 for another 24 hours. To induce terminal differentiation in all three conditions, the medium containing growth factors was replaced with basic N2/B27 medium at day 5, and cell allowed to differentiate to day 9.” left out, “analysis. […]” for “analysis.”
# [5] = system: Wnt-signaling genes; assay: RT-qPCR of selected Wnt genes at day 5 (RA±BMP4, Noggin); type: cell-based, mouse
# Procedure: as §2
# Additionally, we also found enriched GO terms related to Wnt signaling across three functional categories (FIG. 4C). […] (FIGS. 4D, 4E, 12B). Selected Wnt-signaling genes were further assessed in a qPCR analysis of day 5 NMPs to validate whether they are BMP4-responsive.
# [6] = system: mESCs-derived NMPs / NPCs; assay: Bulk RNA-Seq differential expression and qRT-PCR after RA or RA+BMP4 treatment; type: cell-based, mouse
# Procedure: Bulk-RNA sequencing and data processing: Total cell lysate was obtained in buffer RLT (Qiagen) at different time points from three independent differentiations (biological replicates) conducted parallelly. RNA extraction was performed using RNeasy mini kit (Qiagen) and the quality was determined using Agilent Technologies 2100 Bioanalyzer and only samples with a RIN score >8.0 were sequenced. Stranded libraries were constructed using Universal plus mRNA sequencing kit (NuGEN) and sequenced onto 2 lanes of NovaseqS1 to generate 30 million reads/sample. Obtained reads were aligned to the latest mouse reference genome (mm10) using the STAR spliced read aligner. Pearson correlation and principal component analysis (PCA) was performed to determine the similarities among the samples and replicates. Differentially expressed genes were identified using DESeq and EdgeR package on R platform. The candidate genes were selected using cutoff false discovery rate (FDR <0.05) and log fold change (>2). Differentially expressed gene lists were further subjected to Enrichr, Metascape (Zhou et al., 2019) and DAVID functional annotation tools to identify enriched gene ontology (GO) categories.
# as §2
# We took advantage of the directed differentiation protocols to investigate the unresolved mechanisms by which RA and BMP direct dI fate specification. To further validate the use of a stem cell model, we first assessed the genetic basis of the fate decisions mediated by RA signaling. During the 24 hr pulse of RA at day 3, Pax3 levels gradually increase, while T expression concomitantly declines (FIG. 12A). […] To identify the transcriptional changes occurring during this first commitment step, we performed bulk RNA-Seq at day 3 (NMP state), day 3.25 (early transcriptional response to RA) and day 4 (dP state1) (FIG. 11B).
# We hypothesized that the addition of BMP4 to NPCs in dP state1, directs them to a more dorsal dP state, i.e. dP state2 (FIG. 11A). To define the transcriptional changes occurring after BMP4 addition, we performed bulk RNA-Seq at day 4 (dP state1), day 4.25 (early transcriptional response to RA+BMP4) and at day 5 (dP state2) (FIG. 4A). […] 78 genes, out of 411, were common between both time points (FIGS. 4B, 13B). Focusing on these common genes, we identified enriched functional processes using GO analyses. The GO terms included the BMP signaling pathway (FIG. 4C, Table 3), confirming that the analysis identified BMP responsive genes.
# [7] = inhibitor added to RA+BMP4 (protocol 3) from day 4, 48 hours, day 9
molecule,measurement,setting,value
C[C@H](NC(=O)Cc1cc(F)cc(F)c1)C(=O)N[C@H](C(=O)OC(C)(C)C)c1ccccc1 [DAPT],Tuj1+ neurites,"[1]; day 10, IHC",increased sprouting of Tuj^+ neurites; also recorded: modest effect increasing the number of Tuj1+neurites
same,NeuN and Tubb3 expression compared to DMSO,"[1]; day 10, RT-qPCR",did not significantly augment NeuN and Tubb3 expression
Oc1nc(-c2ccc(C(F)(F)F)cc2)nc2c1CSCC2 [XAV939],dI1 and dI2 differentiation,[2]; [7],most strongly suppresses the differentiation of the BMP4-dependent dI1/dI2s
same,dI3 differentiation,[2]; [7],more modest effect on dI3s
same,"dI4, dI5, dI6 fates",[2]; [7],increase in the expression of dI4-dI6 specific genes
same,"dP markers Pax3, Pax7, Olig3",[2]; inhibitor added to RA+BMP4 condition,prevents both the suppression of Pax7+dPs and induction of Olig3+dPs
C[C@@H](N)[C@H]1CC[C@H](C(=O)Nc2ccncc2)CC1 [Y-27632],apoptosis upon dissociation and EB formation,[3],significantly inhibit apoptosis and enhance the EB formation
bFGF: human basic fibroblast growth factor,Expression of Sox2 and T,[4],upregulate Sox2 but not T
"Noggin: a BMP signaling inhibitor (protein, UniProt Q13253 28-232, looked up) Noggin: QHYLHIRPAPSDNLPLVDLIEHPDPIFDPKEKDLNETLLRSLLGGHYDPGFMATSPPEDRPGGGGGAAGGAEDLAELDQLLRQRPSGAMPSEIKGLEFSEGLAQGKKQRLSKKLRRKLQMWLWSQTFCPVLYAWNDLGSRFWPRYVKVGSCFSKRSCSVPEGMVCKPSKSVHLTVLRWRCQRRGGQRCGWIPIQYPIISECKCSC",upregulation of Wnt expression,[5]; Noggin concomitantly added with BMP4 on day 4,upregulation of Wnt expression was suppressed
"BMP4: human recombinant bone morphogenetic protein 4 (protein, UniProt P12644 293-408, looked up) Bone morphogenetic protein 4: SPKHHSQRARKKNKNCRRHSLYVDFSDVGWNDWIVAPPGYQAFYCHGDCPFPLADHLNSTNHAIVQTLVNSVNSSIPKACCVPTELSAISMLYLDEYDKVVLKNYQEMVVEGCGCR",upregulated genes common between both time points,[6]; 6 hrs and 24 hrs of BMP4+RA treatment,78 genes
same,genes upregulated,[6]; 6 hrs of BMP4 addition (day 4.25) vs day 4,106 genes
same,genes upregulated,[6]; 24 hrs of BMP4 exposure (day 5) vs day 4,305 genes
same,expression of selected Wnt-signaling genes,"[5]; day 5, addition of BMP4 compared to RA alone",expression of all genes tested significantly increased
